“Also recorded” adds a separate entry of the source.
Legend:
xCT [1] = experiment: Western blot xCT expression in NAc-core, NAc-shell and liver (50 mg/kg study); type: in vivo, P rats; settings: MC-100093 50 mg/kg or ceftriaxone 200 mg/kg i.p. 5 days
Procedure: (§1) We used micro-punch procedure to dissect the subregions of the NAc such as NAc-core and NAc-shell as well as the subregions of prefrontal cortex such as infralimbic (IL) and prelimbic (PL) from the brain on day 6 after the last injection day. P rats were removed from the cage and rapidly euthanized by CO2 inhalation followed by rapid decapitation with a guillotine. Brains were isolated and immediately frozen on dry ice and stored at −80° C. The stereotaxic coordinates provided by Paxinos and colleague's rat brain stereotactic atlas was used to isolate NAc-core and NAc-shell using a cryostat apparatus (−20° C.), which then kept at −80° C. for later western blot analyses.
(§2) Western Blot assay was performed to measure changes in the expression of GLT-1, xCT, mGluR1, mGluR5, PPAR-α, PPARγ, GAPDH and β-tubulin in the NAc-core and NAc-shell as described in previous publications. A lysis buffer containing protease and phosphatase inhibitors was used to generate a homogenate of liver, Nac-core, and Nac-shell samples. The amount of protein was quantified using a detergent compatible protein assay (Bio-Rad, Hercules, CA, USA) for each sample. Samples were mixed with laemmli dye and loaded with equal amounts on polyacrylamide gels (10%), which separated the proteins using electrophoresis. After that, polyvinylidene difluoride (PVDF) membranes were used to transfer the proteins electrophoretically from the gels. Membranes were incubated in 5% free-fat milk in Tris-buffered saline with Tween-20 (TBST) for 30-60 minutes at room temperature. Membranes were then incubated with appropriate primary antibodies overnight at 4° C.: rabbit anti-GLT-1 (1:5000, Abcam, ab41621), rabbit anti-xCT (1:2000, Abcam, ab175186), rabbit anti-mGluR1 (1:1000, Abcam, ab82211), rabbit anti-mGluR5 (1:1000, Abcam, ab76316), rabbit anti-PPAR-α (1:1000, Abcam, ab24509), and rabbit anti-PPARγ (1:1000, Abcam, ab209350). Mouse anti-β-tubulin (1:1000; BioLegend) was used as a loading control antibody for the brain samples and rabbit anti-GAPDH (1:5000; cell signaling) was used as a loading control antibody for the liver samples. Membranes were washed five times on the next day with TBST followed by incubation with appropriate secondary antibody (1:5000) for 90 minutes at room temperature. Chemiluminescent reagents (Super Signal West Pico, Pierce Inc.) were used to detect the proteins using a GeneSys imaging system to develop the digitized blot images. Water-control group data were represented as 100% and all other values were expressed relative to control group to detect changes in the expression of the protein of interest in the brain and liver samples.
(§3) All statistical analyses were conducted with Graphpad Prism software, with p-values of 0.05 or less being statistically significant. We performed a two-way (mixed model) ANOVA followed by Bonferroni multiple comparison post-hoc test to analyze 24 h ethanol consumption, 24 h water consumption, and daily body weight. For the Western blot and oil red O staining analysis, we performed one-way ANOVA with Newman-Keuls as a post hoc multiple comparison test to measure differences between groups as a percentage (relative to control values).

xCT [2] = settings: earlier studies, chronic ethanol; cited from earlier work
mGluR1 = experiment: Western blot mGluR1 expression in NAc-core and NAc-shell; type: in vivo, P rats; settings: MC-100093 50 mg/kg or ceftriaxone 200 mg/kg i.p. 5 days; among all groups
Procedure: as §1, §2
(§4) All statistical analyses were conducted with Graphpad Prism software, with p-values of 0.05 or less being statistically significant. […]

GLT-1 [3] = experiment: Western blot GLT-1 expression in NAc-core, NAc-shell and liver (50 mg/kg study); type: in vivo, P rats; settings: MC-100093 50 mg/kg or ceftriaxone 200 mg/kg i.p. 5 days
Procedure: as §1, §2, §3

mGluR5 = experiment: Western blot mGluR5 expression in NAc-core and NAc-shell; type: in vivo, P rats; settings: MC-100093 50 mg/kg or ceftriaxone 200 mg/kg i.p. 5 days
Procedure: as §1, §2, §4

GLT-1 [4] = settings: earlier studies, chronic ethanol; cited from earlier work
[5] = Ethanol drinking paradigm, three-bottle choice (MC-100093 50 mg/kg vs ceftriaxone 200 mg/kg); type: in vivo, P rats
Procedure: P rats were received from Indiana University School of Medicine (Indianapolis, IN, USA), and were housed in a 21° C. on a 12/12 h light/dark cycle-maintained room where they had free access to water and food. All experimental procedures were approved by the Institutional Animal Care and Use Committee (IACUC) of The University of Toledo, in accordance with the guidelines governing the use of animals in research of the National Institutes of Health as described in the Guidefor the Care and Use of Laboratory Animals.
We used an ethanol drinking paradigm as described previously by Alhaddad, et al. (2014). Briefly, animals started the experimental drinking procedure at age of 90 days. The animals had five weeks of exposure to continuous three-bottle choice drinking, 0%, 15% and 30%, v/v ethanol in water, available concurrently. Daily measurement of ethanol intake was performed (g of ethanol intake/kg of body weight/day). We measured the baseline ethanol drinking by average the intake during the last three weeks. Three groups of P rats (n=8-9/group) exposed to the five weeks ethanol exposure. At week 6, rats in each group received daily intraperitoneal injection of either MC-100093 at dose of 50 mg/kg (Ethanol-MC group), Ceftriaxone at dose of 200 mg/kg (Ethanol-CEF group, which also serves as positive control), or equivolume of saline vehicle (Ethanol group) for five days. This paradigm results in pharmacologically relevant blood alcohol concentration (50-200 mg %). Following the criteria for the development of ethanol dependence, rats whose average ethanol intake <4 g/kg/day were excluded from the study. Beside the ethanol exposed groups, another group of P rats (n=8) exposed to only water and food throughout the exposure procedures (control group).
as §3

[6] = earlier and literature studies in rats; cited from earlier work
PPAR-α = experiment: Western blot PPAR-α expression in NAc-core, NAc-shell and liver; type: in vivo, P rats; settings: MC-100093 50 mg/kg or ceftriaxone 200 mg/kg i.p. 5 days; among all groups
Procedure: as §1, §2, §4

fat content in the liver = experiment: Liver Oil Red O staining (fat content); type: in vivo, P rats; settings: MC-100093 50 mg/kg or ceftriaxone 200 mg/kg i.p. 5 days, control, ethanol, ethanol-CEF groups
Procedure: To measure the fat content in the liver sections, we used Oil Red O (Sigma, CAS Number 1320-06-5) staining on 10 μm thick formalin-fixed liver sections and placed in slides for further staining. The slides were stained with freshly prepared Oil Red O working solution 15 minutes then rinsed with 60% isopropanol. Slides were then rinsed with distilled water and mounted in aqueous mounting media and prepared for imaging. The degree of Oil Red O staining was determined at 20× magnification using a color video camera attached to an Olympus VS120 slide scanning microscope. Olympus OlyVIA software was used to analyze the images. The lipid droplets were quantified using Image J pro (NIH). Data are presented as the mean+SEM of the Oil Red O staining for each group.
as §3

PPAR-γ = experiment: Western blot PPAR-γ expression in liver; type: in vivo, P rats; settings: MC-100093 50 mg/kg or ceftriaxone 200 mg/kg i.p. 5 days; between all groups
Procedure: Western Blot assay was performed to measure changes in the expression of GLT-1, xCT, mGluR1, mGluR5, PPAR-α, PPARγ, GAPDH and β-tubulin in the NAc-core and NAc-shell as described in previous publications. A lysis buffer containing protease and phosphatase inhibitors was used to generate a homogenate of liver, Nac-core, and Nac-shell samples. The amount of protein was quantified using a detergent compatible protein assay (Bio-Rad, Hercules, CA, USA) for each sample. Samples were mixed with laemmli dye and loaded with equal amounts on polyacrylamide gels (10%), which separated the proteins using electrophoresis. After that, polyvinylidene difluoride (PVDF) membranes were used to transfer the proteins electrophoretically from the gels. Membranes were incubated in 5% free-fat milk in Tris-buffered saline with Tween-20 (TBST) for 30-60 minutes at room temperature. Membranes were then incubated with appropriate primary antibodies overnight at 4° C.: rabbit anti-GLT-1 (1:5000, Abcam, ab41621), rabbit anti-xCT (1:2000, Abcam, ab175186), rabbit anti-mGluR1 (1:1000, Abcam, ab82211), rabbit anti-mGluR5 (1:1000, Abcam, ab76316), rabbit anti-PPAR-α (1:1000, Abcam, ab24509), and rabbit anti-PPARγ (1:1000, Abcam, ab209350). […]

[7] = ceftriaxone 200 mg/kg i.p. vs MC-100093 50 mg/kg i.p., days 2 through 5

Compound: CO/N=C(\C(=O)N[C@@H]1C(=O)N2C(C(=O)O)=C(CSc3nc(=O)c(=O)[nH]n3C)CS[C@H]12)c1csc(N)n1 [Ceftriaxone, reference compound]
- Protein expression of xCT in the NAc-core (xCT [1]; among all groups): non-significant difference; also recorded: no significant difference
- Protein expression of xCT in the liver (xCT [1]; between all groups): no significant differences
- Protein expression of xCT in the NAc-shell (xCT [1]; vs Ethanol group): significantly higher level of xCT; also recorded: significantly increased xCT expression
- xCT expression in the NAc (xCT [2]): attenuation of downregulation of GLT-1 as well as xCT expression; also recorded: upregulated GLT-1 and xCT expression in the NAc
- Protein expression of mGluR1 in the NAc-core (mGluR1): non-significant difference; also recorded: no significant difference
- Protein expression of mGluR1 in the NAc-shell (mGluR1): non-significant differences; also recorded: no significant difference
- Protein expression of GLT-1 in the liver (GLT-1 [3]): normalized GLT-1 level; also recorded: normalize the PPAR-α and GLT-1 levels in the liver
- Protein expression of GLT-1 in the NAc-core (GLT-1 [3]; among Control, Ethanol, Ethanol-MC, Ethanol-CEF): non-significant difference; also recorded: no significant difference
- Protein expression of GLT-1 in the NAc-shell (GLT-1 [3]; vs Ethanol group): significantly increased
- Protein expression of mGluR5 in the NAc-core (mGluR5; among all groups): non-significant difference; also recorded: no significant difference
- Protein expression of mGluR5 in the NAc-shell (mGluR5; vs control or ethanol groups): no significant change in the expression of mGluR5; also recorded: significantly downregulated in ethanol group compared to control, Ethanol-MC (50 mg/kg), and Ethanol-CEF (200 mg/kg) groups; also recorded: normalizing levels of mGluR5
- GLT-1 expression in the NAc (GLT-1 [4]): attenuation of downregulation of GLT-1 as well as xCT expression; also recorded: upregulated GLT-1 and xCT expression in the NAc
- Body weight (grams) ([5]; MC-100093 50 mg/kg i.p. or ceftriaxone 200 mg/kg i.p. 5 days): Neither MC-100093 (50 mg/kg, i.p.) nor Ceftriaxone (200 mg/kg, i.p.) treatment has significant effect; also recorded: no significant effects
- Water intake (mL/day) ([5]; MC-100093 50 mg/kg i.p. or ceftriaxone 200 mg/kg i.p. 5 days, vs Ethanol-Saline group (MC-100093: at day 5 only)): significant increase in water consumption from day 1 through day 5; also recorded: significant increase in water consumption from day 2 through day 5
- Ethanol consumption (g/kg of average body weight/24 hr) ([5]; P rats after 5 wk ethanol, MC-100093 50 mg/kg i.p. or ceftriaxone 200 mg/kg i.p. daily 5 days, vs Ethanol-Saline group): significant decrease in ethanol consumption from day 1 through day 5; also recorded: significantly reduced ethanol consumption from day 2 through day 5; also recorded: attenuated ethanol drinking behavior
- Ethanol consumption, Ethanol-Ceftriaxone compared to Ethanol-MC group [5, 7]: significantly lower; also recorded: attenuate drinking behavior to a greater extent than MC-100093
- Water consumption, Ethanol-Ceftriaxone compared to Ethanol-MC group [5, 7]: significantly higher
- Ethanol drinking behavior / consumption [6]: decreased ethanol consumption in rats; also recorded: attenuated ethanol drinking behaviors
- Protein expression of PPAR-α in the NAc-core (PPAR-α): non-significant differences; also recorded: did not detect significant changes
- Protein expression of PPAR-α in the NAc-shell (PPAR-α): non-significant differences; also recorded: did not detect significant changes
- Liver fat content (Oil Red O stained fat droplets) (fat content in the liver): no significant difference in fat content between control, ethanol-MC, and ethanol-CEF groups; also recorded: significantly higher fat droplet content in ethanol group (p<0.05) compared to control, ethanol-MC or ethanol-CEF groups; also recorded: alleviated the liver steatosis
- Protein expression of PPAR-γ in the liver (PPAR-γ): not changed significantly

Compound: Cc1ccc(C)c(OCCCC(C)(C)C(=O)O)c1 [Gemfibrozil]
- Ethanol drinking behavior / consumption [6]: reduced ethanol drinking behavior in rats

Compound: CC1CC=NN1C(=O)c1cccnc1 (centres unmarked) [MS-153]
- xCT expression in the NAc (xCT [2]): upregulated GLT-1 and xCT expression in the NAc
- GLT-1 expression in the NAc (GLT-1 [4]): upregulated GLT-1 and xCT expression in the NAc
- Ethanol drinking behavior / consumption [6]: attenuated ethanol drinking behaviors

Reference: patent publication US20250057808A1, “COMPOSITION COMPRISING BETA LACTAM FOR TREATING ALCOHOL DEPENDENCE AND ALCOHOL ASSOCIATED DISEASES OR CONDITIONS” (Temple University of the Commonwealth System of Higher …, priority 2023, published 2025)
